Reference: the METLIN SMRT retention time set (Domingo-Almenara et al. 2019)

Assay: gradient 5% acetonitrile 3 min, to 50% in 2 min, to 85% in 15 min, held 3 min, 100 µL/min
Conditions: column: Zorbax Extend-C18 2.1 x 50 mm; eluents: water / acetonitrile, 0.1% formic acid
How it was run: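 The mobile phases were water and acetonitrile, each with 0.1% formic acid, pumped at 100 μL/min through a Zorbax Extend-C18 column (2.1 × 50 mm, 1.8 μm). Pure standards were injected as mixtures of ~100 molecules and detected by a quadrupole time-of-flight mass spectrometer in positive and negative ionization mode. Retention time came from computationally picked adduct peaks, each inspected by hand.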
Work on `CCc1nn2c(CNC(=O)C3CCCO3)c(-c3ccccc3)nc2s1` (stereo not given) yielded an RP-LC retention time of 765 s.
Molecule `O=C(NCCc1c[nH]c2ccccc12)c1cccc(N2C(=O)CCS2(=O)=O)c1` has an RP-LC retention time of 749 s.
`CCc1cc(C(=O)Nc2cccc(C#N)c2)nc2ccnn12` gave an RP-LC retention time of 939 s.
With `O[C@H](CNC[C@@H](O)[C@H]1CCc2cc(F)ccc2O1)[C@@H]1CCc2cc(F)ccc2O1` the RP-LC retention time was 791 s.
With `CCOC(=O)CNC(=O)N(C)CCc1noc(-c2ccc(Cl)cc2)n1` the RP-LC retention time was 789 s.
In the case of `CCOc1ccc(NC(=O)N2CCC(C)(C(=O)NCc3ccc(F)cc3)CC2)cc1`, the RP-LC retention time is reported as 796 s.
Work on `COC(=O)C(C)NC(=O)N1CCCN(C2=NS(=O)(=O)C(c3ccccc3)=C2C)CC1` (stereo not given) yielded an RP-LC retention time of 715 s.
Work on `C=CCn1c(=O)c2ccc(C(=O)NCC(C)C)cc2n2c(=O)n(CC(N)=O)nc12` yielded an RP-LC retention time of 643 s.
`O=C(c1ccc(Br)cc1)N1CCc2[nH]nc(C(=O)N3CCOCC3)c2C1` showed an RP-LC retention time of 661 s.
With `CCCC(=O)Nc1ccc2c(c1)CCC(=O)N2CCOC` the RP-LC retention time was 654 s.
In the case of `CNC(=O)c1nc(C(C)(C)NC(=O)c2ccnn2C)nc2c1OCO2`, the RP-LC retention time is reported as 603 s.
For `O=C(Nc1ccc(F)cc1F)c1ccc2ncsc2c1`, the RP-LC retention time was 713 s.
With `CCN1c2ccccc2C(=O)NC12CCN(C(=O)Nc1ccccc1C)CC2` the RP-LC retention time was 731 s.
`Cc1ccc(CNC(=O)N(C)CC2CCOC2)cc1` (stereo not given) gave an RP-LC retention time of 575 s.
`O=C1CCC(C(=O)N2CCC3(CCC3O)CC2)=NN1` (stereo not given) showed an RP-LC retention time of 575 s.
Molecule `Cc1cc(C)n(CC(=O)N[C@@H]2CN(S(C)(=O)=O)C[C@H]2CN(C)C)n1` has an RP-LC retention time of 564 s.
Work on `COc1ccc(-c2nc(N3CCC(C)CC3)c3ccccc3n2)cc1` yielded an RP-LC retention time of 860 s.
In the case of `CCn1ccc(C(=O)N2c3ccccc3CC2c2nc(C3CC3)no2)n1` (stereo not given), the RP-LC retention time is reported as 924 s.
With `Cn1c2c(c3ccccc31)C(C(=O)NCc1ccc(F)cc1)N(Cc1cccnc1)C(=O)CS2` (stereo not given) the RP-LC retention time was 703 s.
For `CCCc1c(C(=O)OCC)cnc2nc(-c3ccccc3)nn12`, the RP-LC retention time was 1120 s.
With `O=C(NC1CC1)c1cccn1Cc1noc(-c2ccccc2)n1` the RP-LC retention time was 840 s.
Work on `CCc1ccc(-c2cc(C(F)(F)F)on2)cc1S(=O)(=O)N1CCN(c2ncccn2)CC1` yielded an RP-LC retention time of 1230 s.
`CCc1ccc(NC(=O)c2cc(CC)n3nccc3n2)cc1` gave an RP-LC retention time of 1140 s.
With `CCC(=O)Nc1ccc(S(=O)(=O)N2CCC(N3CCOCC3)CC2)cc1` the RP-LC retention time was 575 s.
`O=C(C1CCN(c2nc(-c3ccc(Cl)cc3)no2)CC1)N1CCC(N2CCCCC2)CC1` showed an RP-LC retention time of 701 s.
`Cn1c(=O)n(C)c2cc(Oc3ccccc3)c(NS(=O)(=O)c3ccc(F)cc3)cc21` gave an RP-LC retention time of 868 s.
In the case of `COc1cccc(Cn2c(=O)c3sccc3n(Cc3nc(-c4ccccc4)no3)c2=O)c1`, the RP-LC retention time is reported as 1000 s.
`CC(=O)c1sc(NC(=O)c2c[nH]c3ccccc3c2=O)nc1C` showed an RP-LC retention time of 615 s.
`CCOC(=O)c1ccccc1NC(=O)Cn1cccc(-c2nc(-c3ccccc3)no2)c1=O` showed an RP-LC retention time of 1030 s.
`CCN(CC)C(=O)c1sc(-c2cn(C(C)C)c3ncccc23)nc1C` showed an RP-LC retention time of 902 s.
In the case of `CC1CCN(Cc2nc(-c3ccc(N4CCSCC4)nc3)no2)CC1`, the RP-LC retention time is reported as 672 s.
In the case of `CC(C)CCNC(=O)C1CCCN(c2nccn3nc(-c4ccccc4Cl)cc23)C1` (stereo not given), the RP-LC retention time is reported as 969 s.
`Cc1ccc(CN2CC(c3nc(CCOCc4ccccc4)no3)C2)s1` showed an RP-LC retention time of 716 s.
Work on `COc1cc(Cl)ccc1C(=O)Nc1cc(S(=O)(=O)N2CCSCC2)sc1C` yielded an RP-LC retention time of 1090 s.
Work on `CCC(=O)Nc1ccc(-n2cnc(C(=O)N3CCN(c4cc(C)ccc4C)CC3)c2)nc1` yielded an RP-LC retention time of 863 s.
`CCc1nc(-c2ccc(-c3noc(-c4ccco4)n3)cc2)cs1` gave an RP-LC retention time of 1170 s.
In the case of `CCCCNC(=O)CC1CCN(C(=O)c2[nH]c(C)cc2C)CC1`, the RP-LC retention time is reported as 719 s.
Molecule `COc1cc(OC)c(NC(=O)Nc2c(-c3ccc(C)cc3)nc3ccccn23)cc1Cl` has an RP-LC retention time of 721 s.
For `CCN1CCN(c2ncc(N3CCC(C(=O)NCC(C)C)CC3)cn2)CC1`, the RP-LC retention time was 582 s.
With `COC(=O)c1ncn2c1C(=O)N(CCCc1ccccc1)C(C)(C(=O)NC1CCCCC1)C2` (stereo not given) the RP-LC retention time was 820 s.
For `COc1ccc(C2=CC(c3ccc(OC)c(OC)c3)c3c(c4ccccc4oc3=O)O2)cc1OC` (stereo not given), the RP-LC retention time was 1140 s.
`COC1CCC12CCN(C(=O)Nc1ccc3c(c1)OCCO3)CC2` (stereo not given) showed an RP-LC retention time of 742 s.
`Cc1ccc2nc(-c3ccccc3Cl)c(Nc3ccc(Cl)cc3)n2c1` gave an RP-LC retention time of 780 s.
With `O=C(c1cc(-c2ccc3c(c2)OCO3)nc2ccccc12)N1CCN(c2ccccn2)CC1` the RP-LC retention time was 674 s.
Work on `Cc1ccc(CNC(=O)C2(C)CCN(S(=O)(=O)c3ccc(C4CCCCC4)cc3)CC2)cc1` yielded an RP-LC retention time of 1270 s.
